From patent US20160199380A1, “Sigma Ligands For the Prevention or Treatment of Pain Induced by Chemotherapy” (Laboratorios del Dr. Esteve, S.A., priority 2009, published 2016)

What was measured:
[1] = system: Oxaliplatin-induced cold allodynia; test: Acetone test, chronic model of oxaliplatin-induced neuropathy in rats; type: in vivo, Sprague-Dawley rats; conditions: for reaction time of paw withdrawal (acetone test), curative treatment: throughout the study
Method: Sixty male Sprague-Dawley rats (CERJ, France), weighing 136-169 g at the beginning of the experimental phase (first administration of compounds on D-2), were used. Rats were housed in a temperature (19.5° C.-24.5° C.) and relative humidity (45%-65%) controlled room with a 12 h—light/dark cycle, with ad libitum access to standard pelleted laboratory chow and water throughout the study.
All treatments were administered in a coded order when it is possible.
Animals were tested 2 times during treatment with compound 63 (i.e. D8 and D15) and once 24 h after completion of treatment with compound 63 (i.e. D16).
During the testing days (i.e. D8, D15), compound 63 and 0.5% HPMC were administered 30 min before the test.
Cold allodynia was assessed by measuring the responses to thermal non-nocic ptive stimulation (acetone test) on D8, D15 and D16.
Cold allodynia was assessed using the acetone test. In this test, latency of hindpaw withdrawal was measured after application of a drop of acetone to the plantar surface of both hindpaws (reaction time) and the intensity of tne response was scored (cold score).
Reaction time to the cooling effect of acetone was measured within 20 sec (cut-off) after acetone application. Responses to acetone were also graded to the following 4-point scale: 0 (no response); 1 (quick withdrawal, flick of the paw); 2 (prolonged withdrawal or marked flicking of the paw); 3 (repeated flicking of the paw with licking or biting).
For each experimental group, the results were expressed as: • The reaction time defined as the time expressed in sec required to elicit paw reaction (mean of 6 measures for each rat together±SEM). • The cumulative cold score defined as the sum of the 6 scores for each rat together±SEM. The minimum score being 0 (no response to any of the 6 trials) and the maximum possible score being 18 (repeated flicking and licking or biting of paws on each of the six trials).
Statistical significance between the treated groups and the vehicle-treated group was determined by a Two-way Repeated Measures ANOVA on Ranks followed, when the F value is significant, by an appropriate post-hoc comparison (Bonferroni's test sing SigmaStet software. The significance level was p<0.05. Statistical analyses were done using SigmaStet software.

[2] = system: paclitaxel-induced cold allodynia; test: Acetone test, paclitaxel-induced cold allodynia in mice; type: in vivo, CD-1 mice
Method: Experiments were performed in CD-1 mice (Charles River, U.S.A.) with at least n=10/experimental group. […] Control animals received the same volume of solvent (a mixture of ethanol and cremophor EL)
Mechanical allodynia was evaluated with an electronically driven Von Frey filament (Dynamic Plantar. Aesthesiorneter, Ugo Basile, Varese, Italy) as previously described (Nieto et al., Pain, 2008, 137(3), 520-31), and cold allodynia was evaluated using the acetone drop method (Nieto et al., Pain, 2008, 137(3), 520-31). […] In addition, in order to study the influence of the sigma 1 receptor in this process the difference in development of allodynia was determined using wild-type mice and sigma 1-receptor knock-out-mice.
Therefore, the cumulative dose was 10 mg/kg per mouse. […]
The response of the animals to the different nociceptive stimuli was tested subsequently during 2-4 weeks, depending on the test (see below), without any additional treatment. Each animal was tested only in one nociceptive model. […] Each animal received only one dose of compound 63 and was tested in only one nociceptive model.
Procedure for assessment of cold allodynis. Cold allodynia was tested as previously described by Nieto et al., Pain, 2008, 137(3), 520-31, by gently touching the plantar skin of the hind paws with an acetone bubble formed with a syringe connected to a thin polyethylene tube. The mice were housed and habituated for 30 min in transparent plastic boxes (7×7×13 cm) with a floor made of wire mesh. After the adaptation period, acetone was applied alternately three times to each paw at intervals of 30 s, and the duration of licking or biting were recorded. A small mirror was placed behind the chambers to allow clear observation of the paws. The time spent licking or biting the paw was recorded by a stopwatch and represented as the cumulative time of licking/biting in the six measurements. Since licking persisting more than 10 s in the experiments was very unusual, a cut-off time of 10 s was used for each trial.
Therefore, the day 10, after the habituation period to the apparatus, baseline latencies were recorded, 30 min later compound 63 or saline was injected s.c. and paw withdrawal latencies were assessed again 60, 120 and 180 minutes after the injection.
(§1) On that day, duration of hind paw licking/biting was recorded immediately before (time 0) and at several times (60, 120 and 180 min) after the injection of compound 63 or saline.
as §1

[3] = system: Cisplatin-induced mechanical allodynia; type: in vivo, Wistar rats; conditions: rats
Method: Male Wistar rats (250-300 g) were obtained from Harlan-lberica (Barcelona, Spain). Upon arrival to our laboratory, animals were stored in standard transparent cages (40×28×25 cm) in environmentally controlled conditions (temperature=20° C,; humidity=60%) with a 12 h light/12 h dark cycle (lights on between 08:00 and 20:00 h). Animals were allowed free access to tap water and standard laboratory rat chow (Harlan-lberica, Barcelona, Spain).
Prior to the experiment, rats were habituated to isolation. Rats received intraperitoneal injections one day per week for 5 weeks of cisplatin (1 mg/kg)+vehicle (control group for acute treatment) or cisplatin (1 mg/kg)+compound 63 (25 mg/kg). The last week (day 36) control group received an acute administration of 64 mg/kg of compound 63.
Mechanical allodynia was assessed before cisplatin administration (basal) and at the end of each experimental week (w1, w2, w3, w4). For the acute evaluation of compound 63 (w5), the mechanical allodynia was assessed 50 minutes after drug administration. On those days, rats were placed individually on an elevated iron mesh in a clear plastic cage and were allowed to adapt to the testing environment for at least 10 min. Habituation to this environment was also performed on the two days before assessment. […] Only robust and immediate withdrawal responses from the stimulus were recorded. […]

## Cc1cc(OCCN2CCOCC2)nn1-c1ccc2ccccc2c1 [Compound 63, 4-{2-[5-Methyl-1-(naphthalen-2-yl)-1H-pyrazol-3-yloxy]ethyl}morpholine]
[1]; 20 mg/kg i.p. daily D8-D15
  reaction time of paw withdrawal (acetone test), curative treatment: low effect
[1]; 40 mg/kg i.p. daily D8-D15
  cumulative cold score (acetone test), curative treatment: intermediate effect
  reaction time of paw withdrawal (acetone test), curative treatment: intermediate effect
[1]; 40 mg/kg i.p. twice a day from D-2 to D15, oxaliplatin 3 mg/kg i.p., rats
  reaction time of paw withdrawal (acetone test), preventive treatment: induced a beneficial effect
[1]; curative, 20 mg/kg i.p., D8
  cumulative cold score (acetone test): 4.3±0.6
[1]; curative, 80 mg/kg i.p. daily D8-D15, D15
  cumulative cold score (acetone test): 1.8±0.3
[1]; curative, 80 mg/kg i.p. daily D8-D15, D15, oxaliplatin 3 mg/kg i.p., rats
  reaction time of paw withdrawal (acetone test): 17.5 ± 0.5 s
[1]; curative, 80 mg/kg i.p. daily D8-D15, D16 (24 h after last dose), oxaliplatin 3 mg/kg i.p., rats
  reaction time of paw withdrawal (acetone test): 15.5 ± 1.0 s
[1]; curative, 80 mg/kg i.p. daily D8-D15, D16, 24 hours after the last injection
  cumulative cold score (acetone test): 3.1±0.6
[1]; curative, 80 mg/kg i.p. daily from D8, D8, oxaliplatin 3 mg/kg i.p., rats
  reaction time of paw withdrawal (acetone test): 19.1 ± 0.3 s
[1]; curative, 80 mg/kg i.p., D8
  cumulative cold score (acetone test): 1.0±0.4
[1]; preventive, 40 mg/kg i.p. twice a day D-2 to D15, D8
  cumulative cold score (acetone test): 2.3±0.6
[1]; preventive, 40 mg/kg i.p. twice a day D-2 to D15, D15
  cumulative cold score (acetone test): 3.0±0.6
[1]; preventive, 40 mg/kg i.p. twice a day D-2 to D15, D16
  cumulative cold score (acetone test): 3.5±0.7
[2]; 64 mg/kg s.c. 30 min before each paclitaxel-vehicle injection, days 1-5, vs paclitaxel-vehicle + saline
  response of the animals to acetone, co-administration with paclitaxel-vehicle: did not significantly modify the response of the animals to acetone
[2]; 64 mg/kg s.c. single injection on day 10, paclitaxel-vehicle treated mice
  response to acetone of control (paclitaxel-vehicle treated) animals: did not afex: the response to acetone
[2]; co-administration: 64 mg/kg s.c. 30 min before each paclitaxel 2 mg/kg i.p. injection, days 1-5, mice
  development of cold allodynia induced by paclitaxel (acetone test): inhibited the development of cold allodynia induced by paclitaxel
[2]; single s.c. injection 32-128 mg/kg on day 10 after paclitaxel 2 mg/kg i.p. days 1-5, mice, vs saline
  expression of paclitaxel-induced cold allodynia (duration of hind paw licking/biting, acetone test): inhibited the expression of paclitaxel-induced cold allodynia
[3]; 64 mg/kg on week 5, 50 minutes before the test, cisplatin 1 mg/kg once a week for 5 weeks
  von Frey pressure response, acute treatment: reverted the effect induced by cisplatin to basal levels
[3]; coadministration of 25 mg/kg twice a day, one day per week, same days as cisplatin 1 mg/kg
  development of mechanical allodynia, preventive treatment: prevented the development of mechanical allodynia by cisplatin
